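These data come from cells grown in 96-well plates and exposed to compound for 48 hours at five concentrations. Definition used: TGI = concentration required for complete inhibition of growth.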
What was measured:
Assay in all cases: DTP human tumour cell line panel, 48 h
[1] = tested on: MALME-3M melanoma
[2] = tested on: HT29 colon
[3] = tested on: SF-539 CNS
[4] = tested on: LOX IMVI melanoma
[5] = tested on: MDA-MB-231 breast
[6] = tested on: 786-0 renal
[7] = tested on: KM12 colon
[8] = tested on: SK-MEL-28 melanoma
[9] = tested on: OVCAR-8 ovarian
[10] = tested on: UO-31 renal
[11] = tested on: HCC-2998 colon
[12] = tested on: UACC-257 melanoma
[13] = tested on: UACC-62 melanoma
[14] = tested on: MDA-MB-435
[15] = tested on: SF-295 CNS
[16] = tested on: OVCAR-4 ovarian
[17] = tested on: NCI/ADR-RES ovarian

| Structure (SMILES) | TGI [1] | TGI [2] | TGI [3] | TGI [4] | TGI [5] | TGI [6] | TGI [7] | TGI [8] | TGI [9] | TGI [10] | TGI [11] | TGI [12] | TGI [13] | TGI [14] | TGI [15] | TGI [16] | TGI [17] |
| --- | --- | --- | --- | --- | --- | --- | --- | --- | --- | --- | --- | --- | --- | --- | --- | --- | --- |
| O=C(O)CN1C=C(C(=O)c2cc3ccccc3n2S(=O)(=O)c2ccccc2)CCC1 | > 100 µM | > 100 µM | > 100 µM | > 100 µM | > 100 µM | > 100 µM | > 100 µM | > 100 µM | > 100 µM | > 100 µM | > 100 µM | > 100 µM | > 100 µM | > 100 µM | > 100 µM | > 100 µM | > 100 µM |
| COC(=O)C1CCC(=O)N1CN(C(C)=O)c1ccccc1Cl (stereo unspecified) | > 100 µM | > 100 µM | > 100 µM | > 100 µM | > 100 µM | > 100 µM | > 100 µM | > 100 µM | > 100 µM | > 100 µM | > 100 µM | > 100 µM | > 100 µM | > 100 µM | > 100 µM | > 100 µM | > 100 µM |
| CC(=O)Nc1ccc(NCC(=O)Nn2cnc3ccc(S(=O)(=O)Nc4ccc(NC(C)=O)cc4)cc3c2=O)cc1 | > 100 µM | > 100 µM | > 100 µM | > 100 µM | > 100 µM | > 100 µM | > 100 µM | > 100 µM | > 100 µM | > 100 µM | > 100 µM | > 100 µM | > 100 µM | > 100 µM | > 100 µM | > 100 µM | > 100 µM |
| O=C1NC(=O)C(F)(n2cc(F)c(=O)[nH]c2=O)C(O)N1 (stereo unspecified) | > 10 µM | > 10 µM | > 10 µM | > 10 µM | > 10 µM | > 10 µM | > 10 µM | > 10 µM | > 10 µM | > 10 µM | > 10 µM | > 10 µM | > 10 µM | > 10 µM | > 10 µM | > 10 µM | > 10 µM |
| CN(C)CCCN1C(=S)N(CCCN(C)C)c2c3ccccc3nc3c([N+](=O)[O-])ccc1c23 | 6.69 µM | 12 µM | 23 µM | 17.9 µM | 24 µM | 18.2 µM | 16.1 µM | 29.9 µM | 22.5 µM | 27.9 µM | 14.5 µM | 20.3 µM | 24.3 µM | 23.7 µM | 23.7 µM | 27.9 µM | 27.9 µM |
| CC(C)OC(=O)c1ccc(CCC2=CC(=O)C=CC2=O)cc1 | 15.9 µM | 33.1 µM | 17.1 µM | 14.2 µM | 23.2 µM | 15.6 µM | 27 µM | 32.9 µM | 18.1 µM | 14.2 µM | 32.6 µM | 25.6 µM | 28.8 µM | 39.8 µM | 90.9 µM | 29.6 µM | 22.1 µM |
| COC(=O)/C=C1\C(=O)N(C(C)=O)c2ccc(Br)cc21 | 35.3 µM | 25 µM | 9.65 µM | 20.3 µM | 28.2 µM | 18 µM | 28.6 µM | 28.6 µM | 24 µM | 3.91 µM | 31.9 µM | 22.8 µM | 25.3 µM | 22 µM | 31.6 µM | 25.9 µM | 36.9 µM |
| Cc1ccn2c(=O)cc(CN3CCOCC3)nc2c1 | > 100 µM | > 100 µM | > 100 µM | > 100 µM | > 100 µM | > 100 µM | > 100 µM | > 100 µM | > 100 µM | > 100 µM | > 100 µM | > 100 µM | > 100 µM | > 100 µM | > 100 µM | > 100 µM | > 100 µM |
| O=C1C[C@H](c2ccccc2)O[C@@H](c2ccccc2)C1 | > 100 µM | > 100 µM | > 100 µM | > 100 µM | > 100 µM | > 100 µM | > 100 µM | > 100 µM | > 100 µM | > 100 µM | > 100 µM | > 100 µM | > 100 µM | > 100 µM | > 100 µM | > 100 µM | > 100 µM |
| COc1ccc(N=Nc2c(C)c(C#N)c(=S)n(C3OC(CO)C(O)C(O)C3O)c2-c2ccccc2)cc1 (stereo unspecified) | 63.1 µM | > 100 µM | > 100 µM | 99.6 µM | > 100 µM | > 100 µM | > 100 µM | 63.6 µM | – | > 100 µM | > 100 µM | > 100 µM | 47.6 µM | 73.9 µM | 98.5 µM | > 100 µM | > 100 µM |
| N=C1OC(CN2CCN(c3ccccc3)CC2)CN1C(=S)Nc1ccccc1 (stereo unspecified) | > 100 µM | > 100 µM | > 100 µM | 72.7 µM | > 100 µM | > 100 µM | > 100 µM | > 100 µM | > 100 µM | > 100 µM | > 100 µM | > 100 µM | > 100 µM | > 100 µM | > 100 µM | > 100 µM | > 100 µM |
| O=C(O[C@@H](/C=C/c1ccccc1)P1(=O)N(Cc2ccccc2)[C@H]2CCCC[C@@H]2N1Cc1ccccc1)c1ccccc1 | 31.6 µM | > 100 µM | 21.3 µM | 14 µM | 6.95 µM | > 100 µM | 14.8 µM | > 100 µM | > 100 µM | 11.7 µM | 18.2 µM | 9.43 µM | 7.47 µM | > 100 µM | > 100 µM | > 100 µM | > 100 µM |
| O=c1cc(N=Nc2ccc(Br)cc2)[nH]c(=S)[nH]1 | 30.8 µM | 34.2 µM | > 100 µM | 29.4 µM | 34.3 µM | 17.1 µM | > 100 µM | 53.2 µM | 51.3 µM | > 100 µM | 38.6 µM | 67.7 µM | > 100 µM | 38.1 µM | > 100 µM | 34.3 µM | > 100 µM |
| CC(ON(C(c1ccccc1)C(C)C)C(C)(C)C)c1ccccc1 (stereo unspecified) | 71.6 µM | 43.5 µM | 43.7 µM | 35.3 µM | 39.3 µM | 30.7 µM | 41.8 µM | 47.5 µM | 51.7 µM | 43.3 µM | 33.7 µM | 47.1 µM | 32.2 µM | 68.9 µM | 28.5 µM | > 100 µM | 56.7 µM |
| C=CCN(c1cc(OCc2ccccc2)c2[nH]cc(C)c2c1)S(C)(=O)=O | 88.7 µM | > 100 µM | > 100 µM | > 100 µM | > 100 µM | > 100 µM | > 100 µM | > 100 µM | > 100 µM | > 100 µM | > 100 µM | > 100 µM | > 100 µM | > 100 µM | > 100 µM | > 100 µM | > 100 µM |
| COC(=O)C(N)CCCC(N)C(=O)NC(C)C(=O)NC(CCC(=O)NCCNCCNc1c2ccccc2nc2cccc([N+](=O)[O-])c12)C(N)=O (stereo unspecified) | 24.8 µM | 47.7 µM | 14.2 µM | 43 µM | 53.1 µM | > 31 µM | 67.2 µM | 31.1 µM | 42.3 µM | 59.4 µM | 34.2 µM | 70.5 µM | 27.1 µM | 20.1 µM | > 100 µM | 8.05 µM | > 100 µM |
| C=C1C(=O)O[C@H]2C/C(C)=C/CC[C@@]3(C)O[C@](C)(CC[C@@H]3I)[C@@H](I)C[C@@H]12 | 14.7 µM | 14.9 µM | 14.4 µM | 6.34 µM | 14.7 µM | 10.9 µM | 18.5 µM | 14.1 µM | 10.1 µM | 11.8 µM | 10.8 µM | 12.7 µM | 12 µM | 11.7 µM | 15 µM | 14.3 µM | 5.65 µM |
| CCCCNC(=O)c1cc2c(cc1Cl)Sc1nccn1S2(=O)=O | > 100 µM | > 100 µM | > 100 µM | > 100 µM | > 100 µM | > 100 µM | > 100 µM | > 100 µM | > 100 µM | > 100 µM | > 100 µM | > 100 µM | > 100 µM | > 100 µM | > 100 µM | > 100 µM | > 100 µM |
| CC(C)C1C(=O)N(c2c(F)c(F)c(F)c(F)c2F)C(=S)N1CCS(=O)c1ccccc1 (stereo unspecified) | 30.2 µM | 27.8 µM | 36.2 µM | 28.2 µM | 32 µM | 32.1 µM | 32.6 µM | 30.8 µM | 32.6 µM | 28.6 µM | 21.8 µM | 35.5 µM | 34.9 µM | 32.3 µM | 33.1 µM | 31.1 µM | 40.8 µM |
| Cc1cc(C)n(CC(Cn2nc(C)cc2C)=C(/C(Cl)=C(/Cl)Nc2ccc([N+](=O)[O-])cc2)[N+](=O)[O-])n1 | 13.4 µM | 11.3 µM | 9.27 µM | 6.06 µM | 25.5 µM | 18.9 µM | 6.55 µM | 29 µM | 14.6 µM | 6.76 µM | 11.7 µM | 12.3 µM | 15.4 µM | 8.95 µM | 20.9 µM | 3.4 µM | > 32.8 µM |
| O=C(CC(=O)N1N=C(N2CCCCC2)CC1c1ccccc1)Nc1ccccc1 (stereo unspecified) | > 100 µM | > 100 µM | > 100 µM | > 100 µM | > 100 µM | > 100 µM | > 100 µM | > 100 µM | > 100 µM | > 100 µM | > 100 µM | > 100 µM | > 100 µM | > 100 µM | > 100 µM | > 100 µM | > 100 µM |

— PubChem BioAssay (NCI)
